This is an account of results in patent publication US20130090385A1, “NOVEL SPECIFIC CASPASE-10 INHIBITORS” (MERCK PATENT GESELLSCHAFT MIT BESCHRANKTER HAFTUNG, priority 2005, published 2013).

Like-named read-outs stand apart in the source and are kept apart here. Where a SMILES comes first, the peptide text is derived from it. The star is where a group is joined. Cbz = O=C(OCc1ccccc1)*; CH2F = FC* Some results are limits rather than exact numbers.

Assay [1] has as its target T1, Recombinant human caspase-2 (Homo sapiens, UniProt P42575).
T1 sequence (P42575 1-452): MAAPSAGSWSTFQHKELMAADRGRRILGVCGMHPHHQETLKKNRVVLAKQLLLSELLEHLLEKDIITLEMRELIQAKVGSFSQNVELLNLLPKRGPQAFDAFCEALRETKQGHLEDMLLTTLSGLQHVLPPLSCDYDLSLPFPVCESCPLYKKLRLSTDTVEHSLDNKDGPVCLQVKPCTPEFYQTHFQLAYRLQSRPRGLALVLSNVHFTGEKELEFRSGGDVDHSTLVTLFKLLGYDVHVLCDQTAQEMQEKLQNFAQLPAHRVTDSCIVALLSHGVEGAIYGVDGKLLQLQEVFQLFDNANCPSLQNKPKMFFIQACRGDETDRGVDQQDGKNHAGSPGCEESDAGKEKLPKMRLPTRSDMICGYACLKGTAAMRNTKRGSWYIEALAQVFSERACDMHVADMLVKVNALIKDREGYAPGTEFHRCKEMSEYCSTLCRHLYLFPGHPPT
Kind of assay: delayed-time fluorescence caspase inhibition test, caspase-2.
Experimental: (§1) The substrate used is a tetrapeptide specific to this caspase, having at one of its ends a fluorescent europium marker (W1284) and at the other end a europium chelate fluorescence quencher (QSy-7): Eu-W1284-CIETDK-QSy-7.
(§2) The caspase cleaves the substrate, releasing the quencher. Thus, by excitation at 340 nm, the signal emitted by the fluorescence of the europium is read by WALLAC Victor^2 reader at 615 nm.
(§3) They are ready for use or may be divided into aliquots and stored at −80° C.. […] 20 μl of this solution are distributed per well of the assay plate. […] The assay is performed with 1 U of enzyme per well, by distributing 20 μl of the diluted solution per well. • The standard inhibitors: The standard inhibitors are dissolved in DMSO to a concentration of 10 mM. They are tested at IC20 and at IC50 on the caspases they inhibit (see following table).
(§4) They are then distributed in the wells using this solution to reach the final concentration of IC20 or IC50, i.e. 3 μl in 33 μl of final reaction volume (dilution 1/11). Thus, the final concentration of DMSO in the well is 0.3% (v/v) final. […] An intermediate dilution (1/6.6) is prepared in DMSO by diluting 10 μl of the concentrated solution in 66 μl of DMSO (final volume). […] The inhibitors are then distributed in the wells to reach the final screening concentration (10 μM), i.e. 3 μl in 33 μl of final reaction volume (dilution 1/11) and a final concentration of DMSO of 0.3% (v/v) in the well. • Protocol:
(§5) The incubation takes place for 3 hours 30 minutes at room temperature before reading the fluorescence in delayed time on the WALLAC Victor^2 reader with the filters corresponding to the fluorescence of europium (excitation filter: 340 nm, emission filter: 615 nm).
(§6) The inhibitors are diluted using solutions with concentrations of less than 20 mM in DMSO, and then prediluted in the caspase buffer. […] The specificity factor for caspase-10 is calculated as the following ratio:

Assay [2] addresses T2, Recombinant human caspase-3 (Homo sapiens, UniProt P42574).
T2 sequence (P42574 29-277): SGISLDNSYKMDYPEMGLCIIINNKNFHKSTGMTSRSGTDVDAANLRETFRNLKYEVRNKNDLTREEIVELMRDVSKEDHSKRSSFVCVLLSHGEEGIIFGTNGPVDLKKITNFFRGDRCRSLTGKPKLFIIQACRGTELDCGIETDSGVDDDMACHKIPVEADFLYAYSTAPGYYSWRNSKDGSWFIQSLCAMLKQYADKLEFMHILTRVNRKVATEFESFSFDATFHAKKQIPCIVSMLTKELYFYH
Kind of assay: delayed-time fluorescence caspase inhibition test, caspase-3.
Experimental: as §1, §2
20 μl of this solution are distributed per well of the assay plate. […] The assay is performed with 1 U of enzyme per well, by distributing 20 μl of the diluted solution per well. • The standard inhibitors: The standard inhibitors are dissolved in DMSO to a concentration of 10 mM. They are tested at IC20 and at IC50 on the caspases they inhibit (see following table). The concentrations mentioned in the table are the final concentrations in the assay wells.
as §4
The volumes and the protocol were optimised for automated use.
as §5
The inhibitors are diluted using solutions with concentrations of less than 20 mM in DMSO, and then prediluted in the caspase buffer.

Assay [3] addresses T3, Recombinant human caspase-6 (Homo sapiens, UniProt P55212).
T3 sequence (P55212 24-293): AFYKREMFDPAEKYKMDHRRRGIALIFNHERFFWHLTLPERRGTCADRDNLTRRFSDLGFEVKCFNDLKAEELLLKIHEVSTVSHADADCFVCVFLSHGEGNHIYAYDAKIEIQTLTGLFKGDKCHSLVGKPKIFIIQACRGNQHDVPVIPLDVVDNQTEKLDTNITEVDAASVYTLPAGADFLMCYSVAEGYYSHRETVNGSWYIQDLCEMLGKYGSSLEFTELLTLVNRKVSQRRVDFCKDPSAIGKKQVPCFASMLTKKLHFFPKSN
The assay is described as follows: delayed-time fluorescence caspase inhibition test, caspase-6.
Experimental: as §1, §2, §3, §4, §5, §6

In assay [4] the target is Recombinant human caspase-8 (Homo sapiens, UniProt Q14790). The assay is described as follows: delayed-time fluorescence caspase inhibition test, caspase-8.
Sequence of Recombinant human caspase-8 (Q14790 217-479): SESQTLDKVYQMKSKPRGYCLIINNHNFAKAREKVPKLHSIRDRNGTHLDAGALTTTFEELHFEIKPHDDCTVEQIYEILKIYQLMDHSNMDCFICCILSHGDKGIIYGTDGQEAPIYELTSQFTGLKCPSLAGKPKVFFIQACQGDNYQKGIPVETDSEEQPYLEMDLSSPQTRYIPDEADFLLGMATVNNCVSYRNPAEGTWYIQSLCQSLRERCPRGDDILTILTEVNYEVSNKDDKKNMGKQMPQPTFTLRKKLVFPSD
Experimental: as §1, §2, §3, §4, §5, §6
Assay [5] concerns the target T4, Recombinant human caspase-9 (Homo sapiens, UniProt P55211).
T4 sequence (P55211 1-416): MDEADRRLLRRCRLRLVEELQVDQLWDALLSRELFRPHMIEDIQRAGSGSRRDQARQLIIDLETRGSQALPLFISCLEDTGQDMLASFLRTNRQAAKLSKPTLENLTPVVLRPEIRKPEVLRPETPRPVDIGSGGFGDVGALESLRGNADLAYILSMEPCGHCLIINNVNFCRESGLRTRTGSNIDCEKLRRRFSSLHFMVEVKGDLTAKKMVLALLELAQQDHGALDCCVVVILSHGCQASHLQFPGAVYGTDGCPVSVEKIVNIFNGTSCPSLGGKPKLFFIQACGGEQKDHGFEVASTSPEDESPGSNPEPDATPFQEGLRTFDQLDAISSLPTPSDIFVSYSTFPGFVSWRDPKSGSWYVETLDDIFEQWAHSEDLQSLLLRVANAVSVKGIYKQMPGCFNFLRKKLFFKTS
Kind of assay: delayed-time fluorescence caspase inhibition test, caspase-9.
Experimental: as §1, §2, §3, §4, §5, §6

Assay [6] deals with T5, Recombinant human caspase-10 (Homo sapiens, UniProt Q92851).
T5 sequence (Q92851 220-521): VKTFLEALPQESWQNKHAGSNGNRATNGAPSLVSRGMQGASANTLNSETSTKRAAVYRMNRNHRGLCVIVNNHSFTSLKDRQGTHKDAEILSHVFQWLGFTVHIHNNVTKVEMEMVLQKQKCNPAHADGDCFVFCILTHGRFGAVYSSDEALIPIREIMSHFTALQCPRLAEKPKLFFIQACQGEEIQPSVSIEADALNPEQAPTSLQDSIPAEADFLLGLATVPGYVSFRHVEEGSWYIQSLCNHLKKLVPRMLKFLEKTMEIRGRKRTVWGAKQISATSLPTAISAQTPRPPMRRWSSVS
Kind of assay: delayed-time fluorescence caspase inhibition test, caspase-10.
Experimental: as §1, §2, §3, §4, §5, §6

The mark [7] stands for this setting: read-out: IC20 of standard inhibitor.

Turning to `O=S(=O)(NCC1(Cc2ccc(CCOCC3CC3)cc2)CCC1)c1ccc(Cl)cc1Cl` [Example 1, 2,4-Dichloro-N-[(1-{4-[2-(cyclopropylmethoxy)ethyl]benzyl}cyclobutyl)methyl]benzenesulfonamide], the IC50 in assay [1] is greater than 200 µM; in assay [2] it was greater than 200 µM; in assay [3] it was greater than 200 µM; in assay [4], greater than 200 µM; in assay [5], greater than 200 µM; in assay [6], 0.22 µM.
Turning to `COc1ccc(S(=O)(=O)NCC2(Cc3ccc(CCOCC4CC4)cc3)CCC2)cc1` [Example 5, N-[(1-{4-[2-(cyclopropylmethoxy)ethyl]benzyl}cyclobutyl)methyl]-4-methoxy-benzenesulfonamide], the IC50 in assay [1] was greater than 200 µM; in assay [2] it was greater than 200 µM; in assay [3], greater than 200 µM; in assay [4], greater than 200 µM; in assay [5], greater than 200 µM; in assay [6] it was 3.59 µM.
As for `O=S(=O)(NCC1(Cc2ccc(CCSC3CCCC3)cc2)CCC1)c1ccc(Cl)cc1Cl` [Example 12, 2,4-dichloro-N-[(1-{4-[2-(cyclopentylthio)ethyl]benzyl}cyclobutyl)methyl]benzenesulfonamide], the IC50 in assay [1] was greater than 200 µM; in assay [2] it was greater than 200 µM; in assay [3], greater than 200 µM; in assay [4], greater than 200 µM; in assay [5] it was greater than 200 µM; in assay [6] it was 0.216 µM.
Consider `CSCCc1ccc(CC2(CNS(=O)(=O)c3ccc(Cl)cc3Cl)CCC2)cc1` [Example 17, 2,4-dichloro-N-[(1-{4-[2-(methylthio)ethyl]benzyl}cyclobutyl)methyl]benzenesulfonamide], for which the IC50 in assay [1] is greater than 200 µM; in assay [2], greater than 200 µM; in assay [3] it was greater than 200 µM; in assay [4], greater than 200 µM; in assay [5], greater than 200 µM; in assay [6], 0.214 µM.
For the compound `O=S(=O)(NCC1(Cc2ccc(CCS(=O)(=O)C3CCCC3)cc2)CCC1)c1ccc(Cl)cc1Cl` [Example 22, 2,4-dichloro-N-[(1-{4-[2-(cyclopentylsulfonyl)ethyl]benzyl}cyclobutyl)methyl]benzenesulfonamide], the IC50 is greater than 200 µM in assay [1]; greater than 200 µM in assay [2]; greater than 200 µM in assay [3]; greater than 200 µM in assay [4]; greater than 200 µM in assay [5]; 0.705 µM in assay [6].
Turning to `CS(=O)(=O)CCc1ccc(CC2(CNS(=O)(=O)c3ccc(Cl)cc3Cl)CCC2)cc1` [Example 27, 2,4-dichloro-N-[(1-{4-[2-(methylsulfonyl)ethyl]benzyl}cyclobutyl)methyl]benzenesulfonamide], the IC50 is greater than 200 µM in assay [1]; greater than 200 µM in assay [2]; greater than 200 µM in assay [3]; greater than 200 µM in assay [4]; greater than 200 µM in assay [5]; 0.235 µM in assay [6].
On to `CS(=O)(=O)CCc1ccc(CC2(CNS(=O)(=O)c3cccc4ccccc34)CCC2)cc1` [Example 30, N-[(1-{4-[2-(methylsulfonyl)ethyl]benzyl}cyclobutyl)methyl]naphthalene-1-sulfonamide], for which the IC50 in assay [1] is greater than 200 µM; in assay [2] it was greater than 200 µM; in assay [3], greater than 200 µM; in assay [4] it was greater than 200 µM; in assay [5], greater than 200 µM; in assay [6], 4.46 µM.
As to `O=S(=O)(NCC1(Cc2ccc(CCO)cc2)CCCC1)c1ccc(Cl)cc1` [Example 33], the IC50 in assay [1] (read-out: Inhibition IC50 Caspase-2, tested 100 nM to 200 μM, 1% DMSO, 3 h 30 min at room temperature) is greater than 200 µM; in assay [2] (read-out: Inhibition IC50 Caspase-3, tested 100 nM to 200 μM, 1% DMSO, 3 h 30 min at room temperature), greater than 200 µM; in assay [3] (read-out: Inhibition IC50 Caspase-6, tested 100 nM to 200 μM, 1% DMSO, 3 h 30 min at room temperature), greater than 200 µM; in assay [4] (read-out: Inhibition IC50 Caspase-8, tested 100 nM to 200 μM, 1% DMSO, 3 h 30 min at room temperature) it was greater than 200 µM; in assay [5] (read-out: Inhibition IC50 Caspase-9, tested 100 nM to 200 μM, 1% DMSO, 3 h 30 min at room temperature) it was greater than 200 µM; in assay [6] (read-out: Inhibition IC50 Caspase-10, tested 100 nM to 200 μM, 1% DMSO, 3 h 30 min at room temperature), 1.7 µM.
On to `O=S(=O)(NCC1(Cc2ccc(CCO)cc2)CCCC1)c1cccc(Cl)c1` [Example 34], for which the IC50 was greater than 200 µM in assay [1]; greater than 200 µM in assay [2]; greater than 200 µM in assay [3]; greater than 200 µM in assay [4]; greater than 200 µM in assay [5]; 3.5 µM in assay [6].
`CC(=O)c1ccc(S(=O)(=O)NCC2(Cc3ccc(CCO)cc3)CCCC2)cc1` [Example 35]: the IC50 in assay [1] is greater than 200 µM; in assay [2], greater than 200 µM; in assay [3] it was greater than 200 µM; in assay [4] it was greater than 200 µM; in assay [5], greater than 200 µM; in assay [6], 2.88 µM.
As for `CS(=O)(=O)c1ccc(S(=O)(=O)NCC2(Cc3ccc(CCO)cc3)CCCC2)cc1` [Example 36], the IC50 in assay [1] was greater than 200 µM; in assay [2] it was greater than 200 µM; in assay [3], greater than 200 µM; in assay [4] it was greater than 200 µM; in assay [5], greater than 200 µM; in assay [6], 9.66 µM.
`CSc1ccc(S(=O)(=O)NCC2(Cc3ccc(CCO)cc3)CCCC2)cc1` [Example 43]: the IC50 was greater than 200 µM in assay [1]; greater than 200 µM in assay [2]; greater than 200 µM in assay [3]; greater than 200 µM in assay [4]; greater than 200 µM in assay [5]; 5.12 µM in assay [6].
On to `O=S(=O)(NCC1(Cc2ccc(CCO)cc2)CCCC1)c1ccc(Cl)c(Cl)c1` [Example 45], for which the IC50 was greater than 200 µM in assay [1]; greater than 200 µM in assay [2]; greater than 200 µM in assay [3]; greater than 200 µM in assay [4]; greater than 200 µM in assay [5]; 0.297 µM in assay [6].
Regarding `COC(=O)C[C@H](NC(=O)[C@H](C)NC(=O)[C@@H](NC(=O)[C@H](CC(=O)OC)NC(=O)OCc1ccccc1)C(C)C)C(=O)CF` [z- DVAD - fmk, reference compound] (Cbz-D(OMe)VAD(OMe)-CH2F), the IC20 in assay [1] (setting [7]) came out at 3 µM.
Take `CC[C@H](C)[C@H](NC(=O)OCc1ccccc1)C(=O)N[C@@H](CCC(=O)OC)C(=O)N[C@H](C(=O)N[C@@H](CC(=O)OC)C(=O)CF)[C@@H](C)O` [z- IETD - fmk, z-IE(OMe)TD(OMe)-fmk, reference compound] (Cbz-IE(OMe)TD(OMe)-CH2F): the IC20 turned out to be 1.5 µM in assay [4] (setting [7]) and 0.08 µM in assay [6] (setting [7]).
For `CC[C@H](C)[C@H](NC(=O)[C@H](CCC(=O)OC)NC(=O)[C@@H](NC(=O)OCc1ccccc1)C(C)C)C(=O)N[C@@H](CC(=O)OC)C(=O)CF` [z- VEID - fmk, z-VE(OMe)ID(OMe)-fmk, reference compound] (Cbz-VE(OMe)ID(OMe)-CH2F), the IC20 in assay [3] (setting [7]) was determined as 3 µM.
Turning to `COC(=O)CC[C@H](NC(=O)[C@H](CC(C)C)NC(=O)OCc1ccccc1)C(=O)N[C@@H](Cc1c[nH]cn1)C(=O)N[C@@H](CC(=O)OC)C(=O)CF` [z-LEHD - fmk, z-LE(OMe)HD(OMe)-fmk, reference compound] (Cbz-LE(OMe)HD(OMe)-CH2F), the IC20 in assay [5] (setting [7]) amounted to 0.2 µM.
